The test system of assay [1] is RPEMYC^H2B-GFP cells. The assay is described as follows: Phenotypic screening assay (mitotic arrest, polyploidy). It is filed as cell-based. The following applies: 1 nM to 30 μM; for pIC50: read-out: Proliferative arrest (>50%). In a few lines: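 RPE cells expressing MYC and H2B-EGFP treated with compound at 1 nM–30 μM; mitotic index scored at 24 h and polyploidy (DNA content) at 48 h by automated imaging, with reads at 24, 48 or 72 h. Hits show transient mitotic arrest followed by polyploid accumulation.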

Assay [2] deals with A549. The assay is described as follows: MECP in cancer cell line. To be noted: Homo sapiens. It is filed as cell-based. The gist of the method: (§1)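 Cancer lines were grown in DMEM with 5% FBS, 2 mM L-glutamine and 1 mM sodium pyruvate at 37 °C, 5% CO2, then exposed to compound from 1 nM to 30 μM. High-content imaging at 24, 48 or 72 h scored mitotic arrest or DNA-content change; values binned A–D.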

For assay [3], the system named is HCT116. Put plainly: MECP in cancer cell line. It counts as cell-based. The following applies: Homo sapiens, HCT-116. In a few lines:
as §1

Assay [4] concerns Hela. The assay is described as follows: MECP in cancer cell line. It counts as cell-based. The following applies: Homo sapiens. In a few lines: as §1
For assay [5], the system named is MDA-MB-231. The assay is described as follows: MECP in cancer cell line. It counts as cell-based. The following applies: Homo sapiens. In a few lines:
as §1

In assay [6] the test system is SW480. Put plainly: MECP in cancer cell line. It counts as cell-based. To be noted: Homo sapiens. In a few lines:
as §1

For assay [7], the system named is T2 HCC. The assay is described as follows: MECP in cancer cell line. To be noted: Mus musculus. It is filed as cell-based. The gist of the method: as §1
Assay [8] has as its system NCI-H23. The assay is described as follows: MECP in cancer cell line. It counts as cell-based. The following applies: Homo sapiens. In a few lines:
as §1

Assay [9] has as its system NCI-N87. Put plainly: MECP in cancer cell line. It is filed as cell-based. To be noted: Homo sapiens. In a few lines:
as §1

For assay [10], the system named is A549. The assay is described as follows: MTT assay of cellular proliferation. It is filed as cell-based. To be noted: Homo sapiens, 50% inhibition of cellular proliferation. The gist of the method: (§2)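 EC50 values reflect the compound concentration that halved proliferation, judged by mitochondrial reduction of MTT to formazan measured at A570. Drug exposure spanned 1 nM to 30 μM after cells reached 20-30% confluence in DMEM with 5% FBS.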

Assay [11] has as its system HCT116. The assay is described as follows: MTT assay of cellular proliferation. It is filed as cell-based. The following applies: Homo sapiens, HCT-116, 50% inhibition of cellular proliferation. The gist of the method: as §2
Assay [12] concerns Hela. The assay is described as follows: MTT assay of cellular proliferation. The following applies: Homo sapiens, 50% inhibition of cellular proliferation. It counts as cell-based. The gist of the method: as §2
In general terms: Tetrazolium dyes change colour on reduction, which living cells bring about.

Assay [13] concerns MDA-MB-231. Put plainly: MTT assay of cellular proliferation. It counts as cell-based. To be noted: Homo sapiens; MDA-MB-231, MTT, 50% inhibition of cellular proliferation. In a few lines: as §2
Assay [14] relates to NCI-H23. Put plainly: MTT assay of cellular proliferation. It is filed as cell-based. The following applies: Homo sapiens, 50% inhibition of cellular proliferation. The gist of the method:
as §2

Assay [15] deals with NCI-N87. Put plainly: MTT assay of cellular proliferation. To be noted: Homo sapiens, 50% inhibition of cellular proliferation. It counts as cell-based. The gist of the method: as §2
The subject of assay [16] is SW480. The assay is described as follows: MTT assay of cellular proliferation. It is filed as cell-based. The following applies: Homo sapiens, 50% inhibition of cellular proliferation. In a few lines:
as §2

The test system of assay [17] is T2 HCC. Put plainly: MTT assay of cellular proliferation. It is filed as cell-based. To be noted: Mus musculus, 50% inhibition of cellular proliferation. In a few lines: as §2
Assay [18] relates to human breast cancer cell line MDA-MB-231. The assay is described as follows: Xenograft assay. It is filed as in vivo. The following applies: MDA-MB-231 xenograft, Nu/Nu mice, 25 mg/kg oral gavage twice a day for 7 days. The procedure:
(§3) Xenografts were initiated in immunocompromised (Nu/Nu) mice with the human lung adenocarcinoma cell line NCI-H23 (FIG. 4A) and the human breast cancer cell line MDA-MB-231 (FIG. 4B). Seven million cells were injected subcutaneously into each mouse and treatment was initiated when the average tumor volumes reached 150 mm3 (n=5/group). Tumor-bearing mice were randomized into different groups to receive either vehicle or indicated compounds. The compounds were administered through oral gavage twice a day for 7 days. For these experiments, all compounds were first dissolved in DMSO and then diluted 1:10 into a mixture containing 50% PEG300 and 49% PBS, 1% Tween 80, pH2.2. 100 ul of drug solution was administered with each dose to each a dose of 25 mg/kg. Tumor volumes were determined from digital caliper raw data by using the formula: Volume (mm3)=(L×W^2)/2. The value W (Width) is the smaller of two perpendicular tumor axes and the value L (Length) is the larger of two perpendicular axes. Mean tumor volumes were calculated for each treatment group at the start point (day 0) and the endpoint (day 7). The percentage change of tumor volumes, defined as (Tumor […]˜Tumor Volume^day0)/Tumor Volume^day0×100% is presented.

Assay [19] concerns human lung adenocarcinoma cell line NCI-H23. The assay is described as follows: Xenograft assay. It counts as in vivo. To be noted: Nu/Nu mice, 25 mg/kg oral gavage twice a day for 7 days. The procedure:
as §3

Setting [20] is: read-out: Min. Effective conc. for Polyploidy (≥5%).

Here are results for two molecules from patent US20240239806A1, “COMPOUNDS, COMPOSITIONS AND METHODS OF TREATING DISORDERS” (Chengdu Anticancer Bioscience, Ltd., priority 2021, published 2024).

SMILES strings stand for the structures. pEC50, pIC50: −log10 of the molar value. Entries after “also recorded” stand apart in the source; their conditions may differ. Where two headings read alike, the source gives them in different places.

Consider `COc1cc(Oc2ccnc3ccsc23)cc(-n2cccn2)c1` [Compound 40, 7-(3-methoxy-5-(1H-pyrazol-1-yl)phenoxy)thieno[3,2-b]pyridine], for which the minimal effective concentration in [1] (setting [20]), in assay [1] (read-out: Mitotic Arrest (≥5%)), in [2], in assay [3], in [4] and in assay [5] was 0.001 to 1 µM throughout. For the same molecule, the minimal effective concentration in [6], in assay [7], in [8] and in [9] was 0.001 to 1 µM in each case. For the same molecule, the pIC50 in assay [1] is 6.00 to 9.00. The pEC50 in [10], in assay [11], in assay [12], in assay [13], in [14] and in assay [15] was 6.00 to 9.00 throughout. Also, the pEC50 in [16] and in assay [17] was 6.00 to 9.00 in each case. Also, the “tumor growth (percentage change of tumor volumes)” value in [18] and in [19] was “suppress the growth; also recorded: suppressing the tumor growth” throughout.
With `COc1cc(NC(C)=O)cc(Oc2ccnc3ccsc23)c1` [Compound 43, N-(3-methoxy-5-(thieno[3,2-b]pyridin-7-yloxy)phenyl)acetamide], the minimal effective concentration in assay [1] (setting [20]), in assay [1] (read-out: Mitotic Arrest (≥5%)), in [2], in assay [3], in assay [4] and in assay [5] was 0.001 to 1 µM each time. Besides, the minimal effective concentration in assay [6], in assay [7], in [8] and in assay [9] was 0.001 to 1 µM each time. Besides, the pIC50 in [1] was 6.00 to 9.00. In addition, the pEC50 in assay [10], in assay [11], in assay [12], in assay [13], in assay [14] and in [15] was 6.00 to 9.00 in each case. Also, the negative logarithm of the EC50 (pEC50) in [16] and in assay [17] was 6.00 to 9.00 throughout. Also, the “tumor growth (percentage change of tumor volumes)” value in [18] was “suppress the growth; also recorded: suppressing the tumor growth and even eliciting tumor regression”; in assay [19] it was “suppress the growth; also recorded: suppressing the tumor growth and even eliciting tumor regression”.
